Test results as given in article PMC9234961 (Journal of Medicinal Chemistry, 2022).

Key:
kinases (468) [1] = target: kinases (468) (Homo sapiens, UniProt Q8NI60); conditions: ADCK3 (CABC1); 1000 nM
kinases (468) [2] = target: kinases (468) (Homo sapiens, UniProt P31152); conditions: ERK4 (MAPK4); 1000 nM
kinases (468) [3] = target: kinases (468) (Homo sapiens, UniProt P00533, G719C); conditions: EGFR(G719C); 1000 nM
kinases (468) [4] = target: kinases (468) (Homo sapiens, UniProt Q9H4A3); conditions: kinase WNK1 (Entrez WNK1); compound concentration 1000 nM
kinases (468) [5] = target: kinases (468) (Homo sapiens, UniProt Q9P0L2); conditions: MARK1; 1000 nM
kinases (468) [6] = target: kinases (468) (Homo sapiens, UniProt P42681); conditions: kinase TXK (Entrez TXK); compound concentration 1000 nM
Chain of kinases (468) (Homo sapiens, UniProt P42681) (P42681 whole entry): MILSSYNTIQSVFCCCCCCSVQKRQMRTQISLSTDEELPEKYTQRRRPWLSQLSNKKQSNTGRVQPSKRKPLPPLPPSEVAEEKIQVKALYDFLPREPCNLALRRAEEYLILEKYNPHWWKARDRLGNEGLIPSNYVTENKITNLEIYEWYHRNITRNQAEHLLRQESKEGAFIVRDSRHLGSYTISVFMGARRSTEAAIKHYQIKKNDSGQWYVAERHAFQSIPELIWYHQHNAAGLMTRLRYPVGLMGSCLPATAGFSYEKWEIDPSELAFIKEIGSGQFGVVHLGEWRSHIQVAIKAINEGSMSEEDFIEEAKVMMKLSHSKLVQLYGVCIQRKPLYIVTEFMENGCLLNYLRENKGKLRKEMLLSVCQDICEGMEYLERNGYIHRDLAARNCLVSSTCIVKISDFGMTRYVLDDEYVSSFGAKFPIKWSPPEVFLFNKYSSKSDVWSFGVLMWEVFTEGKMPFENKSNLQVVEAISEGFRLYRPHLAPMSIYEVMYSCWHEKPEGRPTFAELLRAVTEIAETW

kinases (468) [7] = target: kinases (468) (Homo sapiens, UniProt Q99640); conditions: PKMYT1; 1000 nM
Chain of kinases (468) (Homo sapiens, UniProt Q99640) (Q99640 whole entry): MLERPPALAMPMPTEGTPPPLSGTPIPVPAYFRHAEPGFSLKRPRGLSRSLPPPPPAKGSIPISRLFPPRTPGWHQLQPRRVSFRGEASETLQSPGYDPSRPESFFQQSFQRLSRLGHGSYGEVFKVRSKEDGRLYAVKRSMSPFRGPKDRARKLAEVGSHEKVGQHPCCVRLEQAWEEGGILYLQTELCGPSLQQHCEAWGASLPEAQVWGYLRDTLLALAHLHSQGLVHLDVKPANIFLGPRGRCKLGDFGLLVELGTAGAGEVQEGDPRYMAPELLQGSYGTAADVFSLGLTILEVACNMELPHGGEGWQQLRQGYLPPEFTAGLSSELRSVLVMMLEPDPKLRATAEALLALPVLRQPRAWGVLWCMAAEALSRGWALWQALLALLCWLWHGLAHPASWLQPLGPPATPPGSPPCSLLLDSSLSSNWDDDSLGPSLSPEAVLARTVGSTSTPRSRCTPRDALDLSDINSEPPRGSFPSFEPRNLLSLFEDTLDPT

kinases (468) [8] = target: kinases (468) (Homo sapiens, UniProt P16234); conditions: PDGFRA; 1000 nM
kinases (468) [9] = target: kinases (468) (Homo sapiens, UniProt Q9NWZ3); conditions: IRAK4; 1000 nM
kinases (468) [10] = target: kinases (468) (Homo sapiens, UniProt O75460); conditions: ERN1; 1000 nM
Chain of kinases (468) (Homo sapiens, UniProt O75460) (O75460 19-977): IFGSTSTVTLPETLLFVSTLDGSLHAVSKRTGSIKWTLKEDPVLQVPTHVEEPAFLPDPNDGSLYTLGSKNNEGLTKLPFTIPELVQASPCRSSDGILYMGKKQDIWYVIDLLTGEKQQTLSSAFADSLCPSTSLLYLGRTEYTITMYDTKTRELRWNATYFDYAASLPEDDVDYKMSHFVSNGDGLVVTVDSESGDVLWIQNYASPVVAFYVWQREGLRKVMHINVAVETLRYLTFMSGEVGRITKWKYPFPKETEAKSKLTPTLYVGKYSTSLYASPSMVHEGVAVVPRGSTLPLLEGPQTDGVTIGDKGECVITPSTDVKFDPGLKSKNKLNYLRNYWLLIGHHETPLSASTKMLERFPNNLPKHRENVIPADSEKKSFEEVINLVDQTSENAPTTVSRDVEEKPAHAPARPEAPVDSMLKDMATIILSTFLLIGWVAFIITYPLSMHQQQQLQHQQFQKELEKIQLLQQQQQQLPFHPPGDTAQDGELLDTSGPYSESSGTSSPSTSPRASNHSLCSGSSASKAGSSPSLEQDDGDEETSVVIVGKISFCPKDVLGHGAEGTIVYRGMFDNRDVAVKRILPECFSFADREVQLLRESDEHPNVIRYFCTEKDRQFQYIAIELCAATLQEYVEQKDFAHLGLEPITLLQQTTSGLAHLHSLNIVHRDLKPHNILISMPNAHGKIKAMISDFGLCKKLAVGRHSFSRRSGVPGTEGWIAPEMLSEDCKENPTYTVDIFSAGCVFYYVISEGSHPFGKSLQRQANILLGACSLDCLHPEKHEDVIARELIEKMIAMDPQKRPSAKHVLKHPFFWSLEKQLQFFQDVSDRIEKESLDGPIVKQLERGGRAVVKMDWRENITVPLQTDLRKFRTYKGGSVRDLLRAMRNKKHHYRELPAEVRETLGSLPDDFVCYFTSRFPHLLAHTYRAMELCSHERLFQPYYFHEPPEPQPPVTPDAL

kinases (468) [11] = target: kinases (468) (Homo sapiens, UniProt O94806); conditions: PRKD3; 1000 nM
Chain of kinases (468) (Homo sapiens, UniProt O94806) (O94806 whole entry): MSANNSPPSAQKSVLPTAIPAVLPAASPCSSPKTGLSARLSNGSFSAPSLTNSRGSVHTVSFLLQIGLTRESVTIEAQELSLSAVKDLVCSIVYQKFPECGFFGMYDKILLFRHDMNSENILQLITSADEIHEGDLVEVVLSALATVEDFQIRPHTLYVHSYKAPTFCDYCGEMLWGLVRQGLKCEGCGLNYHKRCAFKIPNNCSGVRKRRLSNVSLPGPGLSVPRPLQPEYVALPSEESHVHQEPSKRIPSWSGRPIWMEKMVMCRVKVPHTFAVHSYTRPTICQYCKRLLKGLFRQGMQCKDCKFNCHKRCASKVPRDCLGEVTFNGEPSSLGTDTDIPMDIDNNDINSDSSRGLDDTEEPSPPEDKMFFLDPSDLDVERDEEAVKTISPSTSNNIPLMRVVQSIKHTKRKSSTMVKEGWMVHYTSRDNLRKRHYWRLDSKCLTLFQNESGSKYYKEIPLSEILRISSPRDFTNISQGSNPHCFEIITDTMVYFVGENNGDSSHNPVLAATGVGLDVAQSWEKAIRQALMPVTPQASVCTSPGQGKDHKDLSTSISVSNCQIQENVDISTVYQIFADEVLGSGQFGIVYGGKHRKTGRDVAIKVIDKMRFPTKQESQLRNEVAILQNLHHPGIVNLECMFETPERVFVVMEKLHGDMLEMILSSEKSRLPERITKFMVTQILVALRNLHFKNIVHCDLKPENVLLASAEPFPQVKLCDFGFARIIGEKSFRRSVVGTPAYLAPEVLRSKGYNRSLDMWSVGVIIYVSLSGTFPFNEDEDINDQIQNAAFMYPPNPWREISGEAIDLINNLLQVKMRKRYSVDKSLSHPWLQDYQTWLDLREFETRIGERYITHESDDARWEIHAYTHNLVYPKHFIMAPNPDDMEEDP

kinases (468) [12] = target: kinases (468) (Homo sapiens, UniProt P52333); conditions: JAK3(JH1domain-catalytic); 1000 nM
kinases (468) [13] = target: kinases (468) (Homo sapiens, UniProt Q9P1W9); conditions: PIM2; 1000 nM
kinases (468) [14] = target: kinases (468) (Homo sapiens, UniProt Q13464); conditions: kinase ROCK1 (Entrez ROCK1); compound concentration 1000 nM
kinases (468) [15] = target: kinases (468) (Homo sapiens, UniProt P11362); conditions: FGFR1; 1000 nM
kinases (468) [16] = target: kinases (468) (Homo sapiens, UniProt Q8TDR2); conditions: kinase STK35 (Entrez STK35); compound concentration 1000 nM
kinases (468) [17] = target: kinases (468) (Homo sapiens, UniProt Q9H1R3); conditions: MYLK2; 1000 nM
kinases (468) [18] = target: kinases (468) (Homo sapiens, UniProt P06213); conditions: INSR; 1000 nM
Chain of kinases (468) (Homo sapiens, UniProt P06213) (P06213 28-1382): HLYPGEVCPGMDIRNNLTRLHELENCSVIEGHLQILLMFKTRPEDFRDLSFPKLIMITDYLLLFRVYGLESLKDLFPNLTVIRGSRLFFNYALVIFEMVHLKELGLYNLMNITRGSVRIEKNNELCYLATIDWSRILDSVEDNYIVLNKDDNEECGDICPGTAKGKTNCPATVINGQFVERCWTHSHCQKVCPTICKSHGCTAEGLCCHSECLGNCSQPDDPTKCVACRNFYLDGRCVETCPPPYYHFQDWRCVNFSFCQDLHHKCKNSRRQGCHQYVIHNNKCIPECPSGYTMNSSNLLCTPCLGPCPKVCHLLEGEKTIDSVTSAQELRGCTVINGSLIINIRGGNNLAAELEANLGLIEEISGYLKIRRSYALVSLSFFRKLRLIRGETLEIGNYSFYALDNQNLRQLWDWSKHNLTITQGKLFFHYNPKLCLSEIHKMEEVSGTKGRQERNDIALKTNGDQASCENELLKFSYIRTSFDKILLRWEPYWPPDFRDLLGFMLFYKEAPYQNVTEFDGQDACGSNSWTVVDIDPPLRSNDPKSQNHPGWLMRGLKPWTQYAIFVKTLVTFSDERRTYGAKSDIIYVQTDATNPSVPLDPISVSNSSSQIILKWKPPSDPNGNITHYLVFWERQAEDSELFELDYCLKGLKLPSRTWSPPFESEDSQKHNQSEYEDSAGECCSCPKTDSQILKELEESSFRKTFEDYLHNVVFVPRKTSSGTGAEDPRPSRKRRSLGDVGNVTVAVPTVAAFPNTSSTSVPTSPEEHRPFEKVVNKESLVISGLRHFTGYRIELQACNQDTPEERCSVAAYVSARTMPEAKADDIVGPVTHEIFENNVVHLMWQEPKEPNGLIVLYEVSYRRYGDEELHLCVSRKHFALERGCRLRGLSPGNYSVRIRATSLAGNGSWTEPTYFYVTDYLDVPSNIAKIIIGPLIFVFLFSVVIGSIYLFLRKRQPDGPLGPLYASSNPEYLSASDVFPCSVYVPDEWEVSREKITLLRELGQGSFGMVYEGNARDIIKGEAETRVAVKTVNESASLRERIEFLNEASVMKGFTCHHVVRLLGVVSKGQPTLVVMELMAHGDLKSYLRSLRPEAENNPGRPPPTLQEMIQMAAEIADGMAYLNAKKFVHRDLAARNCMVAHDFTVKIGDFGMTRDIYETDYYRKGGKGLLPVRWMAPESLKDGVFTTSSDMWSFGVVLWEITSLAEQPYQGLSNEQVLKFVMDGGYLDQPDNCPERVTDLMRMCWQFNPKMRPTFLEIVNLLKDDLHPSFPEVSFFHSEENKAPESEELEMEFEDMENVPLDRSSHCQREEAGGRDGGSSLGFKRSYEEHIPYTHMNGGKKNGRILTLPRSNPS

kinases (468) [19] = target: kinases (468) (Homo sapiens, UniProt P53350); conditions: PLK1; 1000 nM
kinases (468) [20] = target: kinases (468) (Homo sapiens, UniProt Q9BX84); conditions: kinase TRPM6 (Entrez TRPM6); compound concentration 1000 nM
kinases (468) [21] = target: kinases (468) (Homo sapiens, UniProt P28482); conditions: ERK2 (MAPK1); 1000 nM
kinases (468) [22] = target: kinases (468) (Homo sapiens, UniProt Q16832); conditions: DDR2; 1000 nM
kinases (468) [23] = target: kinases (468) (Homo sapiens, UniProt O00141); conditions: kinase SGK (Entrez SGK1); compound concentration 1000 nM
Chain of kinases (468) (Homo sapiens, UniProt O00141) (O00141 whole entry): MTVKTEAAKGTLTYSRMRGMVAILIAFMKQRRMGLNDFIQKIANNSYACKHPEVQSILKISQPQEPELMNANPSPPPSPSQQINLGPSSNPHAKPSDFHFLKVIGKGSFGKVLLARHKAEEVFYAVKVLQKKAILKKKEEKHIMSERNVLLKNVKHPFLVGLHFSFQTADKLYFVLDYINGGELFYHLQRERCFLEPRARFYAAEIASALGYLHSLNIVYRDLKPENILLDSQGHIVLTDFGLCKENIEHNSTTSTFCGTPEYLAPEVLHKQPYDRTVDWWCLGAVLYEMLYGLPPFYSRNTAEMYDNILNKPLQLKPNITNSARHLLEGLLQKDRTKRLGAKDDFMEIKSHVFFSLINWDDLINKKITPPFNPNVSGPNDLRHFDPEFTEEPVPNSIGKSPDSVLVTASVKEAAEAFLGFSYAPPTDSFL

kinases (468) [24] = target: kinases (468) (Homo sapiens, UniProt P27448); conditions: MARK3; 1000 nM
kinases (468) [25] = target: kinases (468) (Homo sapiens, UniProt Q9UBE8); conditions: NLK; 1000 nM
kinases (468) [26] = target: kinases (468) (Homo sapiens, UniProt Q8WXR4); conditions: MYO3B; 1000 nM
kinases (468) [27] = target: kinases (468) (Homo sapiens, UniProt Q9Y6M4); conditions: CSNK1G3; 1000 nM
kinases (468) [28] = target: kinases (468) (Homo sapiens, UniProt Q6XUX3); conditions: kinase RIPK5 (Entrez DSTYK); compound concentration 1000 nM
kinases (468) [29] = target: kinases (468) (Homo sapiens, UniProt Q6P3R8); conditions: NEK5; 1000 nM
kinases (468) [30] = target: kinases (468) (Homo sapiens, UniProt O96013); conditions: PAK4; 1000 nM
kinases (468) [31] = target: kinases (468) (Homo sapiens, UniProt P09769); conditions: FGR; 1000 nM
kinases (468) [32] = target: kinases (468) (Homo sapiens, UniProt O94768); conditions: DRAK2 (STK17B); 1000 nM
Chain of kinases (468) (Homo sapiens, UniProt O94768) (O94768 whole entry): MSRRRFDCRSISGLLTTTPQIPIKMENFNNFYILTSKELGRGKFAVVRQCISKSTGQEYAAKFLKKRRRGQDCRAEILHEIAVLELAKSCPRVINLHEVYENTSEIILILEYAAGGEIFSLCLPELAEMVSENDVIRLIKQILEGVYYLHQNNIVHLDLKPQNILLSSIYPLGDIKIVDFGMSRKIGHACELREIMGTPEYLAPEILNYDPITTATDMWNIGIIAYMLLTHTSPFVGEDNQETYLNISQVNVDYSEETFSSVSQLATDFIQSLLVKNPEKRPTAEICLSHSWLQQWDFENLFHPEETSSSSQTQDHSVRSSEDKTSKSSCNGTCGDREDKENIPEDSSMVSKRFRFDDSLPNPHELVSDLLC

kinases (468) [33] = target: kinases (468) (Homo sapiens, UniProt P07947); conditions: kinase YES (Entrez YES1); compound concentration 1000 nM
kinases (468) [34] = target: kinases (468) (Mycobacterium tuberculosis, UniProt P9WI81); conditions: PKNB(M.tuberculosis) (pknB); 1000 nM
kinases (468) [35] = target: kinases (468) (Homo sapiens, UniProt P23443); conditions: kinase S6K1 (Entrez RPS6KB1); compound concentration 1000 nM

Compound: C[C@H]1C[C@@H](O)CN(c2ncc(Cl)c(Nc3ccc4c(c3)c3c(c(=O)n4C)OCC(F)(F)[C@H](C4CC4)N3)n2)C1 [CCT373566_9A]
- Percent Control (kinases (468) [1]): 100%
- Percent Control (kinases (468) [2]): 100%
- Percent Control (kinases (468) [3]): 94%
- Percent Control (kinases (468) [4]): 100%
- Percent Control (kinases (468) [5]): 100%
- Percent Control (kinases (468) [6]): 99%
- Percent Control (kinases (468) [7]): 100%
- Percent Control (kinases (468) [8]): 95%
- Percent Control (kinases (468) [9]): 80%
- Percent Control (kinases (468) [10]): 92%
- Percent Control (kinases (468) [11]): 75%
- Percent Control (kinases (468) [12]): 78%
- Percent Control (kinases (468) [13]): 98%
- Percent Control (kinases (468) [14]): 93%
- Percent Control (kinases (468) [15]): 100%
- Percent Control (kinases (468) [16]): 99%
- Percent Control (kinases (468) [17]): 100%
- Percent Control (kinases (468) [18]): 98%
- Percent Control (kinases (468) [19]): 83%
- Percent Control (kinases (468) [20]): 95%
- Percent Control (kinases (468) [21]): 96%
- Percent Control (kinases (468) [22]): 100%
- Percent Control (kinases (468) [23]): 98%
- Percent Control (kinases (468) [24]): 89%
- Percent Control (kinases (468) [25]): 100%
- Percent Control (kinases (468) [26]): 100%
- Percent Control (kinases (468) [27]): 100%
- Percent Control (kinases (468) [28]): 90%
- Percent Control (kinases (468) [29]): 100%
- Percent Control (kinases (468) [30]): 100%
- Percent Control (kinases (468) [31]): 100%
- Percent Control (kinases (468) [32]): 98%
- Percent Control (kinases (468) [33]): 99%
- Percent Control (kinases (468) [34]): 100%
- Percent Control (kinases (468) [35]): 85%
